Reference: patent US4178449A, “Pyrazolo[1,5-a]pyrimidines and imidazo-[1,5-a]pyrimidines” (American Cyanamid Company, priority 1978, dated 1979)

Assays:
[1] = test system: pentylenetetrazole clonic seizures in rats; assay: protection from convulsions resulting from the administration of pentylenetetrazole; type: in vivo, rat; design: key: Active: The test compounds are considered active if they protect 50% or more of the rats from clonic seizures; conditions: oral or intraperitoneal, single or graded doses, pentylenetetrazole 21 to 23 mg./kg. i.v. at 30 or 60 minutes
Protocol: The anti-anxiety properties of the novel compounds of the present invention have been established in a test which indicates anxiolytic activity by the measure of protection from convulsions resulting from the administration of pentylenetetrazole. Single or graded dose levels of the test compounds were administered orally or intraperitoneally in a 2% starch vehicle, to groups of at least 4 rats. At 30 or 60 minutes, the rats were treated intravenously with pentylenetetrazole at a dose of 21 to 23 mg./kg. of body weight. This dose is estimated to cause clonic seizures in 99% of unprotected rats. The test compounds are considered active if they protect 50% or more of the rats from clonic seizures. It has been reported [R. T. Hill and D. H. Tedeschi, "Animal Testing and Screening Procedures in Evaluating Psychotropic Drugs" in "An Introduction to Psychopharmacology", Eds. R. R. Rech and K. E. Moore, Raven Press, New York, pp. 237-288 (1971)] that there is a high degree of correlation between antagonism of pentylenetetrazole seizures in rats and anti-anxietyeffects in higher warm-blooded animals.

[2] = test system: 3H-diazepam binding to the brain receptors (rat frontal cortex P2-synaptosomal fraction); assay: inhibition of 3H-diazepam binding to brain receptors; design: key: Active: A compound which exhibits the ability to inhibit binding by ≥20% is considered to be active; conditions: 3H-diazepam (1.5 mM.), 20 minutes in ice
Text: Another test used to measure anxiolytic activity comprises measurement of the ability of test compounds to inhibit the binding of ^3 H-diazepam to the brain receptors of warm-blooded animals. The test is described by R. F. Squires in Nature, 266, No. 21 page 732 (April 1977) and H. Mohler and T. Okada, Science, 198, 849 (1977). A modification of this test was employed wherein the animals used were male albino rats of the Wistar strain, weighing 150-200 g. each from Royalhart Farms. Diazepam (methyl-^3 H) was obtained from New England Nuclear. The test compounds were solubilized in either dimethylformamide, acetic acid, ethanol or hydrochloric acid. Frontal cortex of rats was homogenized gently in 20 volumes of ice-cold 0.32 M. sucrose, centrifuged twice at 1000 g. for 10 minutes and then recentrifuged at 30,000 g. for 20 minutes to produce a crude P2 -synaptosomal fraction. The P2 -fraction was resuspended, twice the original volume, in hypotonic 50 mM. Tris.HCl (pH 7.4). The binding assay consisted of 300 μl. of the P2 -fraction suspension (0.350 mg.), 100 μl. of test drug and 100 μl. of ^3 H-diazepam ([…].),. which was added to 1.5 ml. of 50 mM. Tris.HCl (pH 7.4). Non-specific binding controls and total binding controls received 100 μl. of diazepam (3 μm.) and 100 μl. of deionized water, respectively, in place of the test compound. Incubation for 20 minutes proceeded in ice and was terminated by filtration, under vacuum, through Whatman GF/C glass fiber filters. The filters were washed twice with 5 ml. of ice-cold 50 mM. Tris.HCl (pH 7.4) and placed in scintillation vials. After drying at 50°-60° C. for 30 minutes, 10 ml. of Beckman Ready-Solve HP was added and the radioactivity determined in a Beckman Scintillation Counter. The percentage of inhibition of diazepam binding is calculated for each compound. […] Representative compounds of the present invention which were active when tested by the diazepam binding assay are set forth in Table III below.

[3] = test system: conflict situation (shocks taken) in Wistar strain rats; assay: non-conditioned passive avoidance (conflict) procedure; type: in vivo, rat; design: key: Active: The test compounds are considered active if the shocks received by the test group are significantly different from the control group by the Mann-Whitney U test; conditions: oral or intraperitoneal, single or graded doses, tested at 30 or 60 minutes, 5 minute interval
Protocol: Another test which has been used to assess anti-anxiety effect is a non-conditioned passive avoidance procedure described by J. R. Vogel, B. Beer and D. E. Clody, "A Simple and Reliable Conflict Procedure for Testing Anti-Anxiety Agents", Psychopharmacologia, 21, 1-7 (1971). A conflict situation is induced in rats by a modification of this method. Groups of 6 naive, Wistar strain rats, weighing 200-240 g. each were deprived of water for 48 hours and food for 24 hours. The test compounds were administered in single or graded, oral or intraperitoneal doses suspended in a 2% starch vehicle containing 0.5% v/v polyethylene glycol and one drop of Polysorbate 80. Control animals received the vehicle alone. At 30 or 60 minutes each rat was placed in individual black plexiglass chambers. A 10% dextrose solution was available ad libitum from a tap located in the rear of the chamber. A 0.3 milliampere constant current 60 Hz pulsed DC shocking current was established between the stainless steel grid floor and the tap. After 20 seconds of non-shocked drinking, an alternating 5 second "shock-on" and 5 second "shock-off" cycle began and continued for a total of 5 minutes. The number of shocks taken by each rat during the 5 minute interval was recorded and compared to a control group. […]

Compound	Result (protection from pentylenetetrazole clonic seizures) [1]	Result (inhibition of 3H-diazepam binding) [2]	Result (number of shocks taken vs control, conflict procedure) [3]
CCOC(=O)c1cnn2c(-c3cccc(C)c3)ccnc12 [Example 77, Ethyl 7-(m-tolyl)pyrazolo[1,5-a]pyrimidine-3-carboxylate]	Active	–	–
CN(C)CCOC(=O)c1cnn2c(-c3cccc(C(F)(F)F)c3)ccnc12 [Example 79, 2-Dimethylaminoethyl 7-(α,α,α-trifluoro-m-tolyl)pyrazolo[1,5-a]-pyrimidine-3-carboxylate]	Active	–	–
Cc1nn2c(-c3cccc(C(F)(F)F)c3)ccnc2c1C#N [Example 11, 2-Methyl-7-(α,α,α-trifluoro-m-tolyl)pyrazolo[1,5-a]pyrimidine-3-carbonitrile]	Active	Active	Active
N#Cc1cnn2c(-c3cccc(C(F)(F)F)c3)ccnc12 [Example 3, 7-(α,α,α-Trifluoro-m-tolyl)pyrazolo[1,5-a]pyrimidine-3-carbonitrile]	Active	Active	Active
N#Cc1c(C(N)=O)nn2c(-c3cccc(C(F)(F)F)c3)ccnc12 [Example 19, 3-Cyano-7-(α,α,α-trifluoro-m-tolyl)pyrazolo[1,5-a]pyrimidine-2-carboxamide]	Active	Active	–
FC(F)(F)c1cccc(-c2ccnc3c(Cl)cnn23)c1 [Example 14, 3-Chloro-7-(α,α,α-trifluoro-m-tolyl)pyrazolo[1,5-a]pyrimidine]	Active	Active	–
c1ccc(-c2ccnc3ccnn23)cc1 [Example 1, 7-Phenylpyrazolo[1,5-a]pyrimidine]	–	Active	Active
ON=Cc1cnn2c(-c3cccc(C(F)(F)F)c3)ccnc12 [Example 49, 7-(α,α,α-Trifluoro-m-tolyl)pyrazolo[1,5-a]pyrimidine-3-carboxaldehyde, oxime]	Active	–	–
CC(=O)c1cnn2c(-c3cccc(C(F)(F)F)c3)ccnc12 [Example 54, Methyl 7-(α,α,α-trifluoro-m-tolyl)pyrazolo[1,5-a]pyrimid-3-yl ketone]	Active	–	–
c1ccc(-c2ccn3nccc3n2)cc1 [Example 67, 5-Phenylpyrazolo[1,5-a]pyrimidine]	Active	–	–
Cc1cnc2c(Cl)cnn2c1-c1cccc(C(F)(F)F)c1 [Example 25, 3-Chloro-6-methyl-7-(α,α,α-trifluoro-m-tolyl)pyrazolo[1,5-a]pyrimidine]	–	Active	Active
COCc1cnn2c(-c3cccc(C(F)(F)F)c3)ccnc12 [Example 80, 3-(Methoxymethyl)-7-(α,α,α-trifluoro-m-tolyl)pyrazolo[1,5-a]-pyrimidine]	Active	–	–
CCOC(=O)c1cnn2c(-c3ccc(C)c(C)c3)ccnc12 [Example 63, Ethyl 7-(3,4-xylyl)pyrazolo[1,5-a]pyrimidine-3-carboxylate]	Active	–	–
CCOC(=O)c1cnn2c(-c3ccc(OC)c(OC)c3)ccnc12 [Example 59, Ethyl 7-(3,4-dimethoxyphenyl)pyrazolo[1,5-a]pyrimidine-3-carboxylate]	Active	–	–
Cc1cnc2ccnn2c1-c1cccc(C(F)(F)F)c1 [Example 24, 6-Methyl-7-(α,α,α-trifluoro-m-tolyl)pyrazolo[1,5-a]pyrimidine]	–	Active	Active
COc1cccc(-c2ccnc3c(C#N)cnn23)c1 [Example 27, 7-(m-Methoxyphenyl)pyrazolo[1,5-a]pyrimidine-3-carbonitrile]	Active	Active	–
Cc1cnc2c(C#N)cnn2c1-c1cccc(C(F)(F)F)c1 [Example 23, 6-Methyl-7-(α,α,α-trifluoro-m-tolyl)pyrazolo-[1,5-a]pyrimidine-3-carbonitrile]	Active	Active	–
CCOC(=O)c1cnn2c(-c3ccc(CC)cc3)ccnc12 [Example 61, Ethyl 7-(p-ethylphenyl)pyrazolo[1,5-a]pyrimidine-3-carboxylate]	Active	–	–
CCOC(=O)c1cnn2c(-c3cccc(C(F)(F)F)c3)ccnc12 [Example 16, 7-(α,α,α-Trifluoro-m-tolyl)pyrazolo[1,5-a]pyrimidine-3-carboxylic acid ethyl ester]	Active	Active	Active
FC(F)(F)c1cccc(-c2ccn3nccc3n2)c1 [Example 66, 5-(α,α,α-Trifluoro-m-tolyl)pyrazolo[1,5-a]pyrimidine]	Active	–	–
N#Cc1ncn2c(-c3cccc(C(F)(F)F)c3)ccnc12 [Example 29, 4-(α,α,α-Trifluoro-m-tolyl)imidazo[1,5-a]pyrimidine-8-carbonitrile]	Active	Active	Active
O=Cc1cnn2c(-c3cccc(C(F)(F)F)c3)ccnc12 [Example 48, 7-(α,α,α-Trifluoro-m-tolyl)pyrazolo[1,5-a]pyrimidine-3-carboxaldehyde]	Active	–	–
N#Cc1cnn2c(-c3ccccc3C(F)(F)F)ccnc12 [Example 21, 7-(α,α,α-Trifluoro-o-tolyl)pyrazolo[1,5-a]pyrimidine-3-carbonitrile]	–	–	Active
FC(F)(F)c1cccc(-c2ccnc3ccnn23)c1 [Example 12, 7-(α,α,α-Trifluoro-m-tolyl)pyrazolo[1,5-a]pyrimidine]	Active	Active	–
CCOC(=O)c1ncn2c(-c3cccc(C(F)(F)F)c3)ccnc12 [Example 56, Ethyl 4-(α,α,α-trifluoro-m-tolyl)imidazolo[1,5-a]pyrimidine-8-carboxylate]	Active	–	–
N#Cc1cnn2c(-c3cccc(F)c3)ccnc12 [Example 76, 7-(m-Fluorophenyl)pyrazolo[1,5-a]pyrimidine-3-carbonitrile]	Active	–	–
FC(F)(F)c1cccc(-c2ccnc3c(Br)cnn23)c1 [Example 15, 3-Bromo-7-(α,α,α-trifluoro-m-tolyl)pyrazolo[1,5-a]pyrimidine]	Active	Active	–
